# Measurements reported in patent publication US12274703B2, “Compositions and methods of treatment for neurological disorders comprising a dementia” (Gliapharm SA, priority 2017, dated 2025).
# pEC50, pIC50: −log10 of the molar value. Where a name gives a salt, the structure may show the parent alone. Read-outs that look alike come from different tables or passages of the source.
# How the values were obtained:
# astrocytes [1] = assay: Extracellular lactate quantification; format: cell-based, mouse; details: Mus musculus, Astrocyte
# Method: (§1) Primary cultures of cerebrocortical astrocytes were obtained from 1-2-day-old OF1 mouse pups (Charles River Laboratories). Briefly, cortices were isolated and minced in small pieces under a dissecting microscope. The cells were incubated for 30 min at 37° C. in a solution containing 20 U/ml of papain enzyme (Worthington Biochemical), L-cysteine 1 mM (Sigma), and 10 kU/ml DNase I (Worthington Biochemical) for an enzymatic dissociation. Papain activity was stopped by the addition of fetal calf serum (FCS) to the solution, and a single-cell suspension was then obtained by mechanical dissociation, which consisted in cells trituration in a DMEM (D7777, Sigma-Aldrich) medium (supplemented with 44 mm NaHCO3, and 10 ml/L antibiotic/antimycotic solution) containing 10% FCS. The cells were seeded at an average density of 6×10^4 cells/cm^2 in poly-D-lysine-coated 96, 12 or 6-well culture plates, depending on their use, and incubated at 37° C. in a humidified atmosphere containing 5% CO2/95% air. Culture medium was renewed twice per week. Cells were stimulated and harvested between DIV14 and DIV17, when confluence and cell growth were optimal.
# Secretion of L-lactate was determined in the extracellular medium of 96-well plated astrocytes after 90 min stimulation (at 37° C., in 5% CO2/95% air conditions) with the drug of interest. The stimulation medium was composed of D5030 medium (completed with D-glucose 5 mM and 44 mM sodium bicarbonate) for 90 min in concentrations ranging from 0 to 100 μM.
# Briefly, 200 μl of a Glycine (Sigma)-Semicarbazide (Acros) 0.2M pH 10 buffer containing 3 mM NAD (Roche) and LDH 14 U/ml (Roche) was added to each well of a 96-well plate containing 30 μl aliquots complemented with 20 μl fresh complete D5030 medium. Samples were incubated at 37° C. for 1 h. After samples cooled down at room temperature, the fluorescence intensity (340 nm excitation/450 nm emission) that represents the amount of NADH produced was measured, and lactate concentration values were determined from a standard curve of L-lactate.
# Statistical analysis consisted in ANOVA followed by Fisher LSD post-hoc test for pair-wise comparisons.
# Levels of lactate secreted by astrocytes were measured in the extracellular medium at 90 min after stimulation with hits (molecules) from the CDC54K library.
# astrocytes [2] = assay: Production of H2O2 (mitochondrial activity); format: cell-based; details: Mus musculus, Astrocyte, 1.5 h; CDC54K hits; 0-200 uM, 90 min
# Method: as §1
# Hydrogene peroxide (H2O2) released in the supernatant is detected enzymatically with Amplex red (Zhou, Diwu et al. 1997). Oxidation of Amplex red is catalysed by the horseradish peroxidase in presence of H2O2 into highly fluorescent resorufin. Fluorescence measure is read at 545 nm extinction, 590 nm emission. The amount of H2O2 was expressed relatively to the proteins content extracted from the cells in culture. […]
# Mitochondrial respiration in astrocytes was measured through production of H2O2 at 90 min after stimulation with CDC54K hits (ranging from 0 to 200 uM).
# astrocytes [3] = assay: MTT viability assay; format: cell-based; details: Mus musculus, Astrocyte, cellular toxicity, 0-200 uM
# Method: as §1
# For cell toxicity determination, astrocytes in 96-well plates were stimulated 24 h (37° C. 5% CO2/95% air) with a gradient ranging from 0.1 to 200 μM of tested compounds. After stimulation, 5 mg/ml thiazol blue tetrazolium bromide (MTT, Sigma-Aldrich) in warm D5030 complete medium was added to each well, and cells were incubated for 4 h at 37° C. (5% CO2). The medium was then removed by aspiration, and the reaction was stopped by the addition of 50 μl DMSO per well.
# The amount of reduced MTT (formazan) solubilized in DMSO was then determined spectrophotometrically using absorbance at 570 nm (Safire 2; Tecan).
# MTT cellular viability assay was performed on astrocytes exposed to molecules from the Prestwick library (Prestwick hits; concentrations ranging from 0 uM to 200 uM).
# MTT cellular viability assay was performed on astrocytes exposed to CDC54K hits (concentrations ranging from 0 uM to 200 uM).
# primary astrocytes = assay: High throughput screening for lactate secretion: acidification of extracellular medium (SNARF5); format: cell-based, mouse; parameters: key to Score / HTS Score (lactate) / HTS Score (SNARF5) / Score_SNARF: fraction of positive control activity (positive control = 100%); details: 10 uM, 90 min; for Emax at 10 µM: Mus musculus, Astrocyte, 1.5 h
# Outline: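 Mouse cortical astrocytes (DIV17) stimulated 90 min at 10 uM compound (1% DMSO) in low-bicarbonate DMEM, 5 mM glucose, with SNARF-5F; extracellular acidification read as 630/580 nm emission ratio (exc 480 nm). Duplicates; score as % of CCCP 2 uM control, hits >3× summed SD above DMSO.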
# astrocytes [4] = assay: Intracellular glycogen quantification; format: cell-based, mouse; details: Prestwick hits; 10 μM, 3 h
# [5] = Appendix II, lactate secretion, read-out: EC50
# [6] = Prestwick hits, activity relative to positive control CCCP 2 uM, read-out: Score
# [7] = Prestwick hits, relative to positive control CCCP 2 uM, read-out: HTS Score (lactate)
# [8] = 1.5 h, Prestwick hits, 0-100 μM, 90 min, read-out: Lactate EC50
Structure (SMILES),pEC50 (astrocytes [1]; [5]),further results
CC(=O)c1c(C)[nH]c(C(=O)C(C)N(C)Cc2ccc3c(c2)OCO3)c1C (centres unmarked) [T5798761],5.40,
COc1cccc(C(CNc2nc(C(F)(F)F)nc3ccccc23)N(C)C)c1 (centres unmarked) [T5800607],5.23,
Cn1nc(C(=O)Nc2ccc(Oc3ccccc3Cl)cc2)ccc1=O [T5813085],5.39,
c1ccc(Cc2ccc(OCCn3ccnc3)cc2)cc1 [T5821723],5.37,
CC(C)(C)NS(=O)(=O)c1cccc(C(=O)Nc2ccncc2)c1 [T5827594],5.30,
COc1ccc(-c2csc(N3C(=O)CC4CS(=O)(=O)CC43)n2)cc1 (centres unmarked) [T5832764],5.40,
COc1cccc(CNS(=O)(=O)c2ccc3c(c2)CCCN3C(C)=O)c1 [T5967389],5.01,"pIC50 (astrocytes [2]): < 3.70; pIC50 (astrocytes [3]; CDC54K hits): < 3.70; Emax at 10 µM (primary astrocytes; Appendix I, primary screening, relative to positive control, read-out: Score): 79%; Emax at 10 µM (primary astrocytes; CDC54K hits, relative to positive control CCCP 2 uM, read-out: HTS Score (SNARF5)): 79%; pEC50 (astrocytes [1]; 1.5 h, CDC54K hits, 0-100 uM, 90 min, read-out: Lactate EC50): 4.63"
O=C(CN1CCCC1c1ccc2c(c1)OCCCO2)Nc1cc(F)cc(F)c1 (centres unmarked) [T5993799],5.06,
Cc1cccc(NC(=O)c2ccc(S(=O)(=O)Nc3ccccc3)cc2)n1 [T6125251],5.34,
O=S(=O)(Nc1ccc(Cl)cc1)c1ccc(F)c(Cl)c1 [T6947848],5.26,
C#C[C@]1(O)CC[C@H]2[C@@H]3[C@H](C)CC4=C(CCC(=O)C4)[C@H]3CC[C@@]21C [Tibolone],,"pIC50 (astrocytes [3]; Prestwick hits, 24 h): 4.22; Emax at 10 µM (primary astrocytes; [6]): 22.7%; Emax at 10 µM (primary astrocytes; [7]): 22.7%; pEC50 (astrocytes [1]; [8]): 5.65"
"O=c1n(CCCN2CCN(c3cccc(Cl)c3)CC2)nc2ccccn12 [Trazodone hydrochloride, trazodone, reference compound]",,"Score (primary astrocytes; Prestwick hits, activity relative to positive control CCCP 2 uM): 0.08377; HTS Score (lactate) (primary astrocytes; Prestwick hits, relative to positive control CCCP 2 uM): 0.084; Glycogen (statistical significance of glycogen degradation) (astrocytes [4]): ns"
Cc1c(C)c2c(c(C)c1O)CCC(C)(COc1ccc(CC3SC(=O)NC3=O)cc1)O2 (centres unmarked) [Troglitazone],,"pIC50 (astrocytes [3]; Prestwick hits, 24 h): 3.98; Emax at 10 µM (primary astrocytes; [6]): 27%; Emax at 10 µM (primary astrocytes; [7]): 27%; pEC50 (astrocytes [1]; [8]): 5.59"
O=C(Nc1ccc(S(=O)(=O)NCC2CCCO2)cc1)c1ccccc1 (centres unmarked) [Y031-0361],5.08,
C1CCCC(NC2=NCCCNC23CCCCC3)CC1 [Z076-0028],5.10,
Cc1nc2ncnn2c(NC2CCCCCC2)c1C [Z606-8287],5.37,
Cc1nc2ncnn2c(NCc2ccco2)c1C [Z606-8298],5.31,
CCc1c(C)nc2ncnn2c1NC1CCCCCC1 [Z606-8351],5.30,
CCc1c(C)nc2ncnn2c1NC1CCCCC1 [Z606-8352],5.39,
